Here are results for 6 compounds from paper PMC12330940, “Targeting the MDM2‐MDM4 interaction interface reveals an otherwise therapeutically active wild‐type p53 in colorectal cancer” (Molecular Oncology, 2025).

One data set relates to p21. The conditions noted are these: cited from earlier work. From the text: P21 has also shown anti‐apoptotic activity, which could contribute to antagonizing the p53‐mediated apoptotic response.
For data set [1], the system named is immortalized lymphoblastoid cells (LCLs) from healthy donors. Description: Viability assay of lymphoblastoid cells (LCLs). The data set is classed as cell-based, human. To be noted: 4 biological replicates, Pep3S 10 µM, Nutlin 2.5 and 10 µM.
The test system of the next data set is p21 mRNA in LoVo cells. Description: p21 mRNA RT-qPCR in LoVo. The data set is classed as cell-based, human. The conditions noted are these: 48 h, three independent experiments. How it is done: (§1) Gene expression was evaluated 48 h after treatment using quantitative real‐time PCR (7900HT Fast; Applied Biosystems, Foster City, CA, USA). RNA extraction was performed using TRIzol® Reagent (Invitrogen, Waltham, MA, USA). RNA (500/1000 ng from cells or mice, respectively) was reverse transcribed with SMART MMLV Reverse Transcriptase (Takara, Shiga, Japan) and subjected to PCR amplification using the SensiMix SYBR Lox‐ROX Kit (Meridian Bioscience, Cincinnati, OH, USA).
A general note: Quantitative PCR measures a nucleic acid by following its amplification.

A further data set has as its system miR-34a in HCT116 cells. The data set is described as follows: miR-34a expression RT-qPCR in HCT116. In kind it is cell-based, human. The conditions noted are these: HCT116, 48 h; two independent experiments. The protocol: (§2) For human p53 signaling pathway analysis, the RT^2 Profiler PCR Array 384 well ‘Human p53 signaling pathway’ was used, following the manufacturer's instructions (Qiagen, Venlo, The Netherlands). Differences of ≥ 1.3‐fold were used as […] criteria. The hsa‐miR‐34a expression was analyzed using the TaqMan™ MicroRNA Assay (Thermo). The results were normalized to those obtained using snRNA RNU6B. Common targets of p53 and miR‐34a were evaluated using miRGator v3.0, miRTarBase, and TargetScanHuman.

Another data set deals with miR-34a in LoVo cells. The data set is described as follows: miR-34a expression RT-qPCR in LoVo. The data set is classed as cell-based, human. To be noted: 48 h, two independent experiments. The protocol:
as §2

The subject of a further data set is p21 mRNA in HCT116 cells. Description: p21 mRNA RT-qPCR in HCT116. The data set is classed as cell-based, human. To be noted: HCT116, 48 h; three independent experiments. The protocol: as §1
Data set [2] relates to p21 mRNA in immortalized lymphoblastoid cells (LCLs) from healthy donors. Description: p21 mRNA RT-qPCR in lymphoblastoid cells. The data set is classed as cell-based, human. The conditions noted are these: 48 h.
Text: (§3) Human colorectal carcinoma cells HCT116 wt‐p53 (RRID: CVCL_0291) were purchased from Sigma‐Aldrich (Darmstadt, Germany). HCT116 exon two knockout TP53 (hereafter p53^−/−) were obtained from Vogelstein's Lab, LoVo (Johns Hopkins University, Baltimore, MD, USA) (RRID: CVCL_0399) from Vitiani's lab (Istituto Superiore di Sanità, Roma, Italy). HCT116 and LoVo cells were maintained in DMEM low glucose (Sigma‐Aldrich) supplemented with 10% FBS (Gibco™, Walthman, MA, USA), 1% penicillin–streptomycin (Sigma‐Aldrich), 1% L‐glutamine (Sigma‐Aldrich) at 37 °C, 5% CO2. Lymphoblastoid cells from healthy donors (LCLs) were grown in RPMI‐1640 (Sigma‐Aldrich), supplemented with 15% FBS (Gibco™), 1% penicillin–streptomycin (Sigma‐Aldrich), 1% L‐glutamine (Sigma‐Aldrich). Primary human myoblasts (Lonza, Basel, Switzerland) were grown in SkGM‐2 medium (Lonza). Cell lines were maintained at 37 °C, 5% CO2.
as §1

The next data set has as its system p53. The conditions noted are these: ref [4]; cited from earlier work. The source says: The extent to which these additional events could be attributed to the dissociated proteins MDM4 or MDM2 remains to be ascertained. Indeed, the potential persistence of MDM2 and MDM4 binding to p53 represents a unique feature of p53 reactivating molecules. […] This is probably mediated by the binding of MDM2 to p53, which, although with reduced efficiency, controls the p53 protein levels. In ad ...

Data set [3] relates to p21 mRNA in shMDM4 HCT116 cells. The data set is described as follows: p21 mRNA in shMDM4 vs shLacZ HCT116. In kind it is cell-based, human. To be noted: doxycycline-inducible shMDM4 vs shLacZ HCT116, 48 h treatment. How it is done: ShMDM4 and shLacZ (as control) HCT116 (wt‐p53 and p53^−/−) cells were obtained by transfection of doxycycline‐inducible silencing plasmids using jetPRIME transfection reagent (Polyplus, Illkirch‐Graffenstaden, France). Cells were maintained in DMEM low glucose (Sigma‐Aldrich) supplemented with 10% FBS (Gibco™) and 1% penicillin–streptomycin (Sigma‐Aldrich). After 24 h, the cells were selected with […] puromycin (Sigma‐Aldrich). Silencing was induced with 1 μg·mL^−1 doxycycline.
as §1

For data set [4], the system named is SESN2, IGF1R, STAT1 mRNA in HCT116 cells. The data set is described as follows: SESN2, IGF1R, STAT1 mRNA RT-qPCR in HCT116. In kind it is cell-based, human. To be noted: HCT116, 48 h. The protocol:
as §1

The next data set concerns the target human MDM2 (Homo sapiens, UniProt Q00987). Description: in vitro affinity to MDM2 (dissociation constant). To be noted: Scramble3S with spread ± 0.028, binding method not described.
For data set [5] the following is noted: ref [20], cited from earlier work. From the text:
To test Pep3S's tumor‐suppressive properties, we focused on colorectal cancer (CRC) cell lines. The frequency of the wild‐type (wt) p53 gene in CRC is approximately 40%, which offers a potential window for the therapeutic application of p53‐reactivating molecules. […] BIK levels were increased by Pep3S. […] To understand the molecular pathways underlying Pep3S activity, we analyzed differentially expressed genes (DEGs) by Pep3S and Pep3 compared to a mix of Scramble3 and Scramble3S in HCT116 cells using a p53‐transcriptional array containing 80 validated targets of the human p53 pat ...

The test system of data set [6] is human p53 pathway target genes in HCT116 cells. The data set is described as follows: RT2 Profiler PCR Array Human p53 signaling pathway, HCT116. The data set is classed as cell-based. How it is done: as §2
Data set [7] relates to p21 mRNA in HCT116 xenograft tumors. The data set is described as follows: p21 mRNA RT-qPCR in xenograft tumors. To be noted: n Pep3 = 3, n Pep3S = 5. In kind it is in vivo, mouse. How it is done:
as §1
Animal studies obtained ethical approval from the Ministry of Health (Protocol N° 79/2023‐PR) and were conducted conforming to the institutional guidelines in compliance with named Italian legislation (DL N116, GU, suppl. 40, 18‐2‐1992). Inbred BALB/c nude mice (CAnN.Cg‐Foxn1^nu/J) obtained from the CNR‐IBBC‐EMMA‐Infrafrontier animal facility were housed in two per cage in the CNR‐IBBC‐EMMA‐Infrafrontier animal house. All animals were housed under controlled lighting conditions (daily light period, 07.00–19.00 h) at 20 ± 2° C, with ad libitum access to food (Emma 23, Mucedola, Settimo Milanese, Italy) and chlorinated filtered water. […] Tumor growth was followed and analyzed by luciferase activity over time. […] Bioluminescence acquisitions were performed with a Hybrid OI/CT system (MILabs, Houten, The Netherlands), and the images were analyzed using MILABS‐OI‐PP software. […]

In another data set the test system is human myoblasts. Description: Proliferation of human myoblasts. The data set is classed as cell-based. The conditions noted are these: healthy human myoblasts.
Text: as §3

The next data set concerns HCT116 cells (wt-p53). Description: PrestoBlue viability assay, 2D HCT116. In kind it is cell-based, human. The conditions noted are these: 2D HCT116, 96 h, three independent experiments.
Text: as §3
Treatments (0.1% DMSO, 10 μM all peptides, 20 μM cisplatin, 10 μM Nutlin‐3a (Sigma‐Aldrich)) were administered every other day. […]
Cell viability was monitored every other day using PrestoBlue™ HS Cell Viability Reagent (Thermo Fisher Scientific). The fluorescence signal was read at 45′ (for 2D) or 1 h (for spheroids) using a spectrophotometer plate reader (Varioskan™ LUX; Thermo Fisher Scientific). Fluorescence excitation/emission: 570/610 nm.

Where [8] appears, read: comparative analysis, miRGator v3.0, miRTarBase, TargetScanHuman.
Setting [9] is: heat map of DEGs modulated by Pep3 only.

Ends that are not written are not given here.

Chain of human MDM2 (Q00987 whole entry): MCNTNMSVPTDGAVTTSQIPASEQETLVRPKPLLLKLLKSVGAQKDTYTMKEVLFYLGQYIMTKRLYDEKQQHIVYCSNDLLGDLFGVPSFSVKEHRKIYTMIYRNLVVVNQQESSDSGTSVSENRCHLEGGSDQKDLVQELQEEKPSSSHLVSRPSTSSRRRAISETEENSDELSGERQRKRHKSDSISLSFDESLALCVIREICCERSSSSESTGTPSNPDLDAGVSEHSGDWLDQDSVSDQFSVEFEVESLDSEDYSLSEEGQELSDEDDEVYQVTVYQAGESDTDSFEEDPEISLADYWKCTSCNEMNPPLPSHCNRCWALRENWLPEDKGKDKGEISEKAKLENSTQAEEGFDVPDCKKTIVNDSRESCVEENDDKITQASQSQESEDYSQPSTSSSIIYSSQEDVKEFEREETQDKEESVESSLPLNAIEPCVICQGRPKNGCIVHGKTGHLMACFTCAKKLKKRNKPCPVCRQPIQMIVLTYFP

In the case of `Cc1ccnc(NC(c2cccc(Cl)c2Cl)c2ccc3cccnc3c2O)c1` (centres unmarked) [MMRi64], in the data set on p21 (ref [21]), the p21 levels entry was “minimal induction of p21 followed by its strong downregulation”.

For `COc1ccc(C2=N[C@@H](c3ccc(Cl)cc3)[C@@H](c3ccc(Cl)cc3)N2C(=O)N2CCNC(=O)C2)c(OC(C)C)c1` [Nutlin‐3a], the cell proliferation result in [1] is reported as “highly potent”. Further, the “p21 mRNA levels” value in the data set with p21 mRNA in LoVo cells and with p21 mRNA in HCT116 cells was “strongly induced p21 expression” each time. In addition, the miR-34a levels result in the data set on miR-34a in HCT116 cells and in the data set with miR-34a in LoVo cells was “induced miR‐34a expression” throughout. For the same compound, the p21 levels result in data set [2] is given as “highly potent”. The p53 levels result in the data set with p53 is given as “increase in p53 levels”. Also, the “effect of MDM4 silencing on p21 regulation” value in [3] was “ineffective in the upregulation mediated by Nutlin‐3a”. Further, the “levels of some p53 targets by RT-qPCR” value in data set [4] (Fig. S3C,D) is “opposite activity by upregulating the levels of some of these targets”. The “SESN2 mRNA level” value in [4] (two independent experiments) is given as “strong upregulation of SESN2”.

On to `OCc1ccc(-c2ccc(-c3ccc(CO)s3)o2)s1` [RITA], for which the p21 protein levels entry in the data set with p21 (ref (43)) is on record as “caused the downregulation of p21 protein levels”.

At human MDM2, Ac-KEIQLVIKVFIA-NH2 [Pep3] came in with a Kd of 0.245 ± 0.029 nM. Further, the “p21 mRNA levels” value with p21 mRNA in LoVo cells is “Although less severe, Pep3 caused a similar decrease”. Further, the “p21 mRNA levels” value with p21 mRNA in HCT116 cells was “Although less severe, Pep3 caused a similar decrease”. In addition, in [5] (PIG3 and BIK), the “mediators of pro-apoptotic activity” value was “mediated by the activation of the pro‐oxidant p53‐targets PIG3 and BIK”. Moreover, the IC50 in [5] (compared with Pep3S IC50, cell line not given) was 10000 nM. In [5], the “pro-apoptotic activity linked to oxidative stress” value is reported as “linked to the activation of an oxidative stress response”. In data set [6] (HCT116), the “shared DEGs varying significantly between Pep3 and Pep3S” value was 11/16. For the same compound, the “p21 levels in p53 array” value in [6] (HCT116, p53 array) is reported as “not significantly altered”. For the same compound, in [6] (setting [8]), the “downregulated DEGs that are miR-34a targets, common to both peptides” value was 8 of the 10 and the “uniquely downregulated DEGs that are miR-34a targets” value is reported as 4/7. In data set [6] (setting [9]), the ADGRB1 expression came to 0.64, the BAX expression is given as 0.55, the EGFR expression came to 0.50 and the FASLG expression was found to be 3.64. In addition, in [6] (setting [9]), the MCL1 expression is 0.59, the NFKB1 expression is listed as 0.51, the PRKCA expression turned out to be 0.53 and the PTEN expression amounted to 0.59. Besides, in data set [6] (vs Scramble mix, HCT116), the “DEGs unique to the peptide” value is on record as 8/33. Besides, in data set [4] (SESN2, IGF1R, STAT1, two independent experiments), the “DEG mRNA levels by RT-qPCR” value is “confirmed the downregulation of some of these DEGs”. Further, in data set [7], the “p21 mRNA levels” value is “Although less severe, Pep3 caused a similar decrease”.

Consider KVFIA [Pep3S], for which the cell proliferation entry is “ineffective in reducing p21 levels and cell proliferation” in data set [1]; “did not alter cell proliferation” in the data set with human myoblasts. For the same compound, the affinity on human MDM2, expressed as Kd, was 0.152 ± 0.007 nM. Moreover, the IC50 with HCT116 cells (wt-p53) worked out at 5540 nM.

As for VAIKF [Scramble3S], the Kd on human MDM2 is 0.447 nM.

One may read the Kd as the free concentration of one partner at which half of the binding sites on the other are occupied at equilibrium, for simple one-to-one binding. What is called IC50 is the concentration needed to halve the response being measured.
